Like-named read-outs stand apart in the source and are kept apart here.
Tests used:
MALME-3M = assay: NCI60 one-dose screen (10 μM), Melanoma; assay type: cell-based; conditions: Homo sapiens, read-out: Growth percent rate
M14 = assay: NCI60 one-dose screen (10 μM), Melanoma; assay type: cell-based; conditions: Homo sapiens
MDA-MB-435 = assay: NCI60 one-dose screen (10 μM), Melanoma; assay type: cell-based; conditions: Homo sapiens
OVCAR-4 = assay: NCI60 one-dose screen (10 μM), Ovarian Cancer; assay type: cell-based; conditions: Homo sapiens
[1] = tested on: 60 human tumor cell lines (NCI60); assay: NCI60 one-dose screen (10 μM), whole panel; assay type: cell-based; conditions: for activity at 10 µM: read-out: Growth percent rate, Mean
MCF7 = assay: NCI60 one-dose screen (10 μM), Breast Cancer; assay type: cell-based; conditions: Homo sapiens
786–0 = assay: NCI60 one-dose screen (10 μM), Renal Cancer; assay type: cell-based; conditions: Homo sapiens
MOLT-4 = assay: NCI60 one-dose screen (10 μM), Leukemia; assay type: cell-based, human; conditions: Homo sapiens
HL-60(TB) = assay: NCI60 one-dose screen (10 μM), Leukemia; assay type: cell-based; conditions: Homo sapiens
SK-MEL-28 = assay: NCI60 one-dose screen (10 μM), Melanoma; assay type: cell-based; conditions: Homo sapiens
CAKI-1 = assay: NCI60 one-dose screen (10 μM), Renal Cancer; assay type: cell-based; conditions: Homo sapiens
OVCAR-8 = assay: NCI60 one-dose screen (10 μM), Ovarian Cancer; assay type: cell-based; conditions: Homo sapiens
CCRF-CEM = assay: NCI60 one-dose screen (10 μM), Leukemia; assay type: cell-based; conditions: Homo sapiens, read-out: Growth percent rate
UACC-257 = assay: NCI60 one-dose screen (10 μM), Melanoma; assay type: cell-based; conditions: Homo sapiens
SF-539 = assay: NCI60 one-dose screen (10 μM), CNS Cancer; assay type: cell-based, human; conditions: Homo sapiens
LOX IMVI = assay: NCI60 one-dose screen (10 μM), Melanoma; assay type: cell-based, human; conditions: Homo sapiens, LOX IMVI, read-out: Growth percent rate
SNB-75 = assay: NCI60 one-dose screen (10 μM), CNS Cancer; assay type: cell-based, human; conditions: Homo sapiens
ACHN = assay: NCI60 one-dose screen (10 μM), Renal Cancer; assay type: cell-based; conditions: Homo sapiens, read-out: Growth percent rate
HCT-116 = assay: NCI60 one-dose screen (10 μM), Colon Cancer; assay type: cell-based; conditions: Homo sapiens
SK-MEL-2 = assay: NCI60 one-dose screen (10 μM), Melanoma; assay type: cell-based; conditions: Homo sapiens
KM12 = assay: NCI60 one-dose screen (10 μM), Colon Cancer; assay type: cell-based, human; conditions: Homo sapiens
EKVX = assay: NCI60 one-dose screen (10 μM), Non-small Cell Lung Cancer; assay type: cell-based; conditions: Homo sapiens, read-out: Growth percent rate
HCC-2998 = assay: NCI60 one-dose screen (10 μM), Colon Cancer; assay type: cell-based; conditions: Homo sapiens
SN12C = assay: NCI60 one-dose screen (10 μM), Renal Cancer; assay type: cell-based; conditions: Homo sapiens, read-out: Growth percent rate
NCI-H460 = assay: NCI60 one-dose screen (10 μM), Non-small Cell Lung Cancer; assay type: cell-based; conditions: Homo sapiens
A549/ATCC = assay: as above; assay type: cell-based; conditions: Homo sapiens
RXF 393 = assay: NCI60 one-dose screen (10 μM), Renal Cancer; assay type: cell-based, human; conditions: Homo sapiens
HCT-15 = assay: NCI60 one-dose screen (10 μM), Colon Cancer; assay type: cell-based; conditions: Homo sapiens
HT29 = assay: NCI60 one-dose screen (10 μM), Colon Cancer; assay type: cell-based; conditions: Homo sapiens
NCI-H23 = assay: NCI60 one-dose screen (10 μM), Non-small Cell Lung Cancer; assay type: cell-based; conditions: Homo sapiens
SF-295 = assay: NCI60 one-dose screen (10 μM), CNS Cancer; assay type: cell-based; conditions: Homo sapiens
SW-620 = assay: NCI60 one-dose screen (10 μM), Colon Cancer; assay type: cell-based; conditions: Homo sapiens
SK-MEL-5 = assay: NCI60 one-dose screen (10 μM), Melanoma; assay type: cell-based, human; conditions: Homo sapiens
IGROV1 = assay: NCI60 one-dose screen (10 μM), Ovarian Cancer; assay type: cell-based; conditions: Homo sapiens
OVCAR-3 = assay: NCI60 one-dose screen (10 μM), Ovarian Cancer; assay type: cell-based; conditions: Homo sapiens
SF-268 = assay: NCI60 one-dose screen (10 μM), CNS Cancer; assay type: cell-based; conditions: Homo sapiens
NCI-H322M = assay: NCI60 one-dose screen (10 μM), Non-small Cell Lung Cancer; assay type: cell-based; conditions: Homo sapiens, read-out: Growth percent rate
NCI-H522 = assay: as above; assay type: cell-based; conditions: Homo sapiens
DU-145 = assay: NCI60 one-dose screen (10 μM), Prostate Cancer; assay type: cell-based; conditions: Homo sapiens
COLO 205 = assay: NCI60 one-dose screen (10 μM), Colon Cancer; assay type: cell-based, human; conditions: Homo sapiens
SNB-19 = assay: NCI60 one-dose screen (10 μM), CNS Cancer; assay type: cell-based; conditions: Homo sapiens
K-562 = assay: NCI60 one-dose screen (10 μM), Leukemia; assay type: cell-based; conditions: Homo sapiens
[2] = 10 μM, Non-small Cell Lung Cancer

CCC12C=CCN3CCC4(c5ccc(OC)cc5N(C)C4C(O)(C(=O)OC)C1OC(=O)CCCN1CCN(C)CC1)C32 (stereo not shown) [Compound 3]
activity at 10 µM (MALME-3M; 10 μM, MALME-3M, Melanoma): 77.2% | activity at 10 µM (M14; 10 μM, M14, Melanoma, read-out: Growth percent rate): 103% | activity at 10 µM (MDA-MB-435; 10 μM, MDA-MB-435, Melanoma, read-out: Growth percent rate): 28.9% | activity at 10 µM (OVCAR-4; 10 μM, OVCAR-4, Ovarian Cancer, read-out: Growth percent rate): 101% | activity at 10 µM ([1]; 10 μM, mean over 60 human cancer cell lines): 87.8% | activity at 10 µM (MCF7; 10 μM, MCF7, Breast Cancer, read-out: Growth percent rate): 78% | activity at 10 µM (786–0; 10 μM, 786-0, Renal Cancer, read-out: Growth percent rate): 106% | activity at 10 µM (MOLT-4; 10 μM, MOLT-4, Leukemia, read-out: Growth percent rate): 102% | activity at 10 µM (HL-60(TB); 10 μM, HL-60(TB), Leukemia, read-out: Growth percent rate): 91% | activity at 10 µM (SK-MEL-28; 10 μM, SK-MEL-28, Melanoma, read-out: Growth percent rate): 85% | activity at 10 µM (CAKI-1; 10 μM, CAKI-1, Renal Cancer, read-out: Growth percent rate): 54.5% | activity at 10 µM (OVCAR-8; 10 μM, OVCAR-8, Ovarian Cancer, read-out: Growth percent rate): 92.9% | activity at 10 µM (CCRF-CEM; 10 μM, Leukemia): 108% | activity at 10 µM (UACC-257; 10 μM, UACC-257, Melanoma, read-out: Growth percent rate): 90.1% | activity at 10 µM (SF-539; 10 μM, SF-539, CNS Cancer, read-out: Growth percent rate): 88.1% | activity at 10 µM (LOX IMVI; 10 μM, Melanoma): 84% | activity at 10 µM (SNB-75; 10 μM, SNB-75, CNS Cancer, read-out: Growth percent rate): 85.3% | activity at 10 µM (ACHN; 10 μM, Renal Cancer): 103% | activity at 10 µM (HCT-116; 10 μM, HCT-116, Colon Cancer, read-out: Growth percent rate): 112% | activity at 10 µM (SK-MEL-2; 10 μM, SK-MEL-2, Melanoma, read-out: Growth percent rate): 84.7% | activity at 10 µM (KM12; 10 μM, KM12, Colon Cancer, read-out: Growth percent rate): 85.3% | activity at 10 µM (EKVX; [2]): 96.5% | activity at 10 µM (HCC-2998; 10 μM, HCC-2998, Colon Cancer, read-out: Growth percent rate): 92.4% | activity at 10 µM (SN12C; 10 μM, Renal Cancer): 89.1% | activity at 10 µM (NCI-H460; 10 μM, NCI-H460, Non-small Cell Lung Cancer, read-out: Growth percent rate): 97.7% | activity at 10 µM (A549/ATCC; 10 μM, A549/ATCC, Non-small Cell Lung Cancer, read-out: Growth percent rate): 98.2% | activity at 10 µM (RXF 393; 10 μM, RXF 393, Renal Cancer, read-out: Growth percent rate): 73% | activity at 10 µM (HCT-15; 10 μM, HCT-15, Colon Cancer, read-out: Growth percent rate): 91.3% | activity at 10 µM (HT29; HT-29, 10 μM, HT29, Colon Cancer, read-out: Growth percent rate): 98.8% | activity at 10 µM (NCI-H23; 10 μM, NCI-H23, Non-small Cell Lung Cancer, read-out: Growth percent rate): 90% | activity at 10 µM (SF-295; 10 μM, SF-295, CNS Cancer, read-out: Growth percent rate): 96.2% | activity at 10 µM (SW-620; 10 μM, SW-620, Colon Cancer, read-out: Growth percent rate): 87% | activity at 10 µM (SK-MEL-5; 10 μM, SK-MEL-5, Melanoma, read-out: Growth percent rate): 74.5% | activity at 10 µM (IGROV1; IGROV-1, 10 μM, IGROV1, Ovarian Cancer, read-out: Growth percent rate): 102% | activity at 10 µM (OVCAR-3; 10 μM, OVCAR-3, Ovarian Cancer, read-out: Growth percent rate): 78.1% | activity at 10 µM (SF-268; 10 μM, SF-268, CNS Cancer, read-out: Growth percent rate): 90.8% | activity at 10 µM (NCI-H322M; [2]): 96.9% | activity at 10 µM (NCI-H522; 10 μM, NCI-H522, Non-small Cell Lung Cancer, read-out: Growth percent rate): 45.9% | activity at 10 µM (DU-145; 10 μM, DU-145, Prostate Cancer, read-out: Growth percent rate): 99.6% | activity at 10 µM (COLO 205; 10 μM, COLO 205, Colon Cancer, read-out: Growth percent rate): 90% | activity at 10 µM (SNB-19; 10 μM, SNB-19, CNS Cancer, read-out: Growth percent rate): 90.6% | activity at 10 µM (K-562; K562, 10 μM, K-562, Leukemia, read-out: Growth percent rate): 66.9%

CC[C@]12C=CCN3CC[C@@]4(c5ccc(OC)cc5N(C)[C@H]4[C@@](O)(C(=O)OC)[C@@H]1OC(=O)CCCN1CCN(C(c4ccc(F)cc4)c4ccc(F)cc4)CC1)[C@@H]32 [Compound 25]
activity at 10 µM (MALME-3M; Malme-3M): -91% | activity at 10 µM (M14; M14, read-out: Growth percent rate): -94.8% | activity at 10 µM (MDA-MB-435; MDA-MB-435, read-out: Growth percent rate): -78.7% | activity at 10 µM (OVCAR-4; OVCAR-4, read-out: Growth percent rate): -41.5% | growth rate ([1]; 10 μM one-dose, on almost all tested cancer types and cell lines, negative = lethality): < −60% | activity at 10 µM ([1]; Homo sapiens): -79.9% | activity at 10 µM (MCF7; MCF7, read-out: Growth percent rate): -88.2% | activity at 10 µM (786–0; 786-0, read-out: Growth percent rate): -96.4% | activity at 10 µM (MOLT-4; MOLT-4, read-out: Growth percent rate): -31.9% | activity at 10 µM (HL-60(TB); HL-60, read-out: Growth percent rate): -56.2% | activity at 10 µM (SK-MEL-28; SK-MEL-28, read-out: Growth percent rate): -96.5% | activity at 10 µM (CAKI-1; CAKI-1, read-out: Growth percent rate): -86.2% | activity at 10 µM (OVCAR-8; OVCAR-8, read-out: Growth percent rate): -69.3% | activity at 10 µM (CCRF-CEM): -29.5% | activity at 10 µM (UACC-257; UACC-257, read-out: Growth percent rate): -78.2% | activity at 10 µM (SF-539; SF-539, read-out: Growth percent rate): -98.5% | activity at 10 µM (LOX IMVI): -98.8% | activity at 10 µM (SNB-75; SNB-75, read-out: Growth percent rate): -86.4% | activity at 10 µM (ACHN): -69.4% | activity at 10 µM (HCT-116; HCT-116, read-out: Growth percent rate): -98.6% | activity at 10 µM (SK-MEL-2; SK-MEL-2, read-out: Growth percent rate): -89.5% | activity at 10 µM (KM12; KM12, read-out: Growth percent rate): -96.9% | activity at 10 µM (EKVX): -89.8% | activity at 10 µM (HCC-2998; HCC 2998, read-out: Growth percent rate): -97.2% | activity at 10 µM (SN12C): -95% | activity at 10 µM (NCI-H460; NCI-H460, read-out: Growth percent rate): -70.4% | activity at 10 µM (A549/ATCC; A549, read-out: Growth percent rate): -65.4% | activity at 10 µM (RXF 393; RXF 393, read-out: Growth percent rate): -94.5% | activity at 10 µM (HCT-15; HCT-15, read-out: Growth percent rate): -96.6% | activity at 10 µM (HT29; HT-29, read-out: Growth percent rate): -83.9% | activity at 10 µM (NCI-H23; NCI-H23, read-out: Growth percent rate): -92.7% | activity at 10 µM (SF-295; SF-295, read-out: Growth percent rate): -91% | activity at 10 µM (SW-620; SW-620, read-out: Growth percent rate): -78.5% | activity at 10 µM (SK-MEL-5; SK-MEL-5, read-out: Growth percent rate): -99.6% | activity at 10 µM (IGROV1; IGROV-1, read-out: Growth percent rate): -77% | activity at 10 µM (OVCAR-3; OVCAR-3, read-out: Growth percent rate): -83% | activity at 10 µM (SF-268; SF-268, read-out: Growth percent rate): -81.9% | activity at 10 µM (NCI-H322M): -71.7% | activity at 10 µM (NCI-H522; NCI-H522, read-out: Growth percent rate): -88.2% | activity at 10 µM (DU-145; DU-145, read-out: Growth percent rate): -94.4% | activity at 10 µM (COLO 205; COLO 205, read-out: Growth percent rate): -78.5% | activity at 10 µM (SNB-19; SNB-19, read-out: Growth percent rate): -93.6% | activity at 10 µM (K-562; K562, read-out: Growth percent rate): -1.7%

Source: PMC11277489, “Novel Piperazine Derivatives of Vindoline as Anticancer Agents” (International Journal of Molecular Sciences, 2024)
